± gives the expanded uncertainty stated by the source.
Assays:
[1] = xn = mol fraction of the nth substance listed; settings: 101.33 kPa, Liquid; for speed of sound: acoustic time of flight gauge
[2] = 101.33 kPa, Liquid; for speed of sound: acoustic time of flight gauge

CCCCCO [pentan-1-ol] + [2H]C([2H])([2H])[N+](=O)[O-]
[1], x2 = 0
Settings	mass density [kg/m3]	viscosity [mPa·s]
303.5 K	807.33 ± 2.2	2.997 ± 0.17
307.5 K	803.76 ± 2.2	2.57 ± 0.15

C[N+](=O)[O-] [nitromethane] + CCCCCO
[1]
Settings	mass density [kg/m3]	speed of sound [m/s]	viscosity [mPa·s]
301.15 K, x1 = 0.065	818.89 ± 2.1	–	–
301.15 K, x1 = 0.099	–	1258.1 ± 2	–
301.15 K, x1 = 0.113	–	–	2.379 ± 0.14
301.15 K, x1 = 0.127	828.49 ± 2	–	–
301.15 K, x1 = 0.186	838.83 ± 1.9	–	–
301.15 K, x1 = 0.202	–	1252.1 ± 2	–
301.15 K, x1 = 0.203	–	–	2.119 ± 0.13
301.15 K, x1 = 0.26	852.95 ± 1.8	–	–
301.15 K, x1 = 0.302	–	1248.3 ± 2	–
301.15 K, x1 = 0.31	863.38 ± 1.8	–	–
301.15 K, x1 = 0.314	–	–	1.743 ± 0.11
301.15 K, x1 = 0.398	883.3 ± 1.6	–	1.487 ± 0.091
301.15 K, x1 = 0.401	–	1245.4 ± 2	–
301.15 K, x1 = 0.469	–	–	1.231 ± 0.077
301.15 K, x1 = 0.502	–	1242.7 ± 2	–
301.15 K, x1 = 0.503	910.3 ± 1.4	–	–
301.15 K, x1 = 0.516	–	–	1.111 ± 0.07
301.15 K, x1 = 0.54	920.98 ± 1.3	–	–
301.15 K, x1 = 0.616	944.27 ± 1.1	–	–
301.15 K, x1 = 0.619	–	1243.9 ± 2	–
301.15 K, x1 = 0.62	–	–	0.9425 ± 0.061
301.15 K, x1 = 0.699	973.7 ± 0.86	–	–
301.15 K, x1 = 0.701	–	1247 ± 2	–
301.15 K, x1 = 0.752	–	–	0.7812 ± 0.052
301.15 K, x1 = 0.753	994.05 ± 0.7	–	–
301.15 K, x1 = 0.801	–	–	0.7348 ± 0.049
301.15 K, x1 = 0.802	1016.76 ± 0.79	1258.9 ± 2	–
301.15 K, x1 = 0.824	–	–	0.679 ± 0.046
301.15 K, x1 = 0.849	–	–	0.673 ± 0.046
301.15 K, x1 = 0.902	–	1281.2 ± 2	–
301.15 K, x1 = 0.911	1070.91 ± 1.2	–	–
301.15 K, x1 = 0.934	–	–	0.6149 ± 0.042
301.15 K, x1 = 1	1126.24 ± 1.7	1305.3 ± 2	0.6091 ± 0.042
306.15 K, x1 = 0.065	815.14 ± 2.1	–	–
306.15 K, x1 = 0.099	–	1240.6 ± 2	–
306.15 K, x1 = 0.113	–	–	2.009 ± 0.12
306.15 K, x1 = 0.127	824.47 ± 2.1	–	–
306.15 K, x1 = 0.186	834.67 ± 2	–	–
306.15 K, x1 = 0.202	–	1234.6 ± 2	–
306.15 K, x1 = 0.203	–	–	1.744 ± 0.11
306.15 K, x1 = 0.26	848.61 ± 1.9	–	–
306.15 K, x1 = 0.302	–	1230.6 ± 2	–
306.15 K, x1 = 0.31	858.74 ± 1.8	–	–
306.15 K, x1 = 0.314	–	–	1.473 ± 0.09
306.15 K, x1 = 0.398	878.5 ± 1.6	–	1.282 ± 0.08
306.15 K, x1 = 0.401	–	1227.7 ± 2	–
306.15 K, x1 = 0.469	–	–	1.093 ± 0.069
306.15 K, x1 = 0.502	–	1225.5 ± 2	–
306.15 K, x1 = 0.503	905.13 ± 1.4	–	–
306.15 K, x1 = 0.516	–	–	0.9447 ± 0.061
306.15 K, x1 = 0.54	915.83 ± 1.3	–	–
306.15 K, x1 = 0.616	939 ± 1.1	–	–
306.15 K, x1 = 0.619	–	1226.6 ± 2	–
306.15 K, x1 = 0.62	–	–	0.7854 ± 0.052
306.15 K, x1 = 0.699	967.99 ± 0.91	–	–
306.15 K, x1 = 0.701	–	1230.2 ± 2	–
306.15 K, x1 = 0.752	–	–	0.6945 ± 0.047
306.15 K, x1 = 0.753	987.94 ± 0.75	–	–
306.15 K, x1 = 0.801	–	–	0.6634 ± 0.045
306.15 K, x1 = 0.802	1010.21 ± 0.73	1241.7 ± 2	–
306.15 K, x1 = 0.824	–	–	0.6288 ± 0.043
306.15 K, x1 = 0.849	–	–	0.6161 ± 0.042
306.15 K, x1 = 0.902	–	1262.1 ± 2	–
306.15 K, x1 = 0.911	1064.52 ± 1.2	–	–
306.15 K, x1 = 0.934	–	–	0.5661 ± 0.04
306.15 K, x1 = 1	1119.36 ± 1.6	1285.2 ± 2	0.5636 ± 0.04

C[N+](=O)[O-] [nitromethane] + [2H]OCCCCC
[1], x1 = 1
Settings	mass density [kg/m3]	viscosity [mPa·s]
301.3 K	1126.04 ± 1.7	0.6074 ± 0.042
306.3 K	1119.15 ± 1.6	0.5623 ± 0.039

[2H]OCCCCC [pentan-1-ol-d]
[2]
Settings	mass density [kg/m3]	speed of sound [m/s]	viscosity [mPa·s]
293.15 K	821.69 ± 1.6	1282.3 ± 2	–
295.15 K	819.5 ± 1.6	1273.7 ± 2	–
298.15 K	818.04 ± 1.7	1265.1 ± 2	–
300.15 K	816.42 ± 1.7	1258.3 ± 2	–
301.3 K	815.63 ± 2.1	–	3.118 ± 0.18
303.15 K	814.24 ± 1.7	1248.5 ± 2	–
305.15 K	813.1 ± 1.7	1241.1 ± 2	–
306.3 K	811.88 ± 2.2	–	2.685 ± 0.16
308.15 K	810.47 ± 1.7	1230.8 ± 2	–

[2], Capillary tube (Ostwald / Ubbelohde) method
Settings	kinematic viscosity [m2/s]
293.15 K	4.99e-06 ± 6e-08
295.15 K	4.458e-06 ± 3.8e-08
298.15 K	4.238e-06 ± 3e-08
300.15 K	3.969e-06 ± 3.1e-08
303.15 K	3.685e-06 ± 2.9e-08
305.15 K	3.456e-06 ± 2.9e-08
308.15 K	3.148e-06 ± 2.7e-08

[2H]C([2H])([2H])[N+](=O)[O-] [deuteronitromethane]
[2]
Settings	kinematic viscosity [m2/s]	mass density [kg/m3]	speed of sound [m/s]	viscosity [mPa·s]
293.15 K	6.05e-07 ± 1.6e-08	1194.74 ± 1.7	1291.1 ± 2	–
295.15 K	5.81e-07 ± 1.6e-08	1190.43 ± 1.7	1283.2 ± 2	–
298.15 K	5.7e-07 ± 1.5e-08	1187.71 ± 1.7	1271.3 ± 2	–
300.15 K	5.49e-07 ± 1.5e-08	1184.73 ± 1.7	1263.3 ± 2	–
303.15 K	5.26e-07 ± 1.5e-08	1181.86 ± 1.7	1251.4 ± 2	–
303.5 K	6.27e-07 ± 4.3e-08	1180.03 ± 2.1	–	0.6274 ± 0.043
305.15 K	5.13e-07 ± 1.4e-08	1178.3 ± 1.6	1243.5 ± 2	–
307.5 K	5.82e-07 ± 4e-08	1172.08 ± 2	–	0.5819 ± 0.041
308.15 K	4.92e-07 ± 1.4e-08	1173.28 ± 1.6	1231.6 ± 2	–
